Source: patent US8906888B2, “Low-calcemic 16,23-diene 25-oxime analogs of 1α,25-dihydroxy vitamin D3” (Cytochroma Inc., priority 2005, dated 2014)

Key:
Type in all cases: cell-based
[1] = target: T1, CYP24 (Homo sapiens, UniProt Q07973); experiment: CYP24 enzyme assay (V79-CYP24 cells, 3H-1α,25(OH)2D3 substrate); conditions: substrate 20 nM, 2 hours, read-out: IC50 in the inhibition of CYP24
T1 construct: expressed in transfected cells; host or cells: V79-CYP24 cells (V79 = Chinese hamster lung fibroblasts, own knowledge; kept under hygromycin selection)
T1 sequence (Q07973 36-514): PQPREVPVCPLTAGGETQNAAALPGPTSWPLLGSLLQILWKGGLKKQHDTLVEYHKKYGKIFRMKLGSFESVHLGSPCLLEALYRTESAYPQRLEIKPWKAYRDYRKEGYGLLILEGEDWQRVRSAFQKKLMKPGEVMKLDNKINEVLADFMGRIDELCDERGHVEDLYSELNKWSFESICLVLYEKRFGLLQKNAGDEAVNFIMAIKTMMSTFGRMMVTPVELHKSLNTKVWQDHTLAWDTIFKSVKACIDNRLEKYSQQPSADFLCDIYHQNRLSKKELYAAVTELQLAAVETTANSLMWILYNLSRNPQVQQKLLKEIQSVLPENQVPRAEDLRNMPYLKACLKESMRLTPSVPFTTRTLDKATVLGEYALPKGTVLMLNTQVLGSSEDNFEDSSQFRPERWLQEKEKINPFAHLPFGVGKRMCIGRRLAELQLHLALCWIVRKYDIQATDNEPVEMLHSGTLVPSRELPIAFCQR
Method: (i) Material and Reagents:
Substrates (1 mM) reconstituted in isopropanol
1. Preparation of Cell Suspension • On the day of the assay, washed the monolayer of V79-CYP24 cells once with 1×PBS buffer and then trypsinized for 5 min at room temperature (approx. 22° C.). Added 1×PBS. Collected cells into tube, centrifuged cells (500×g, 5 min) and resuspended in DMEM+1% BSA media. Counted cells and adjusted density to 2 million/1 mL.
2. Cell Plating • Added 80 μl of cell suspension to appropriately labeled wells of a 96-well plate. Incubated plate for 45 minutes at 37° C. in a humidified atmosphere containing 5% CO2.
3. Compound Addition • Added 10 μl of inhibitor (10^−6 to 10^−10 M) and then after 35-40 min added 10 μl of substrate [^3H-1β]-1α,25(OH)2D3 (20 nM) for 2 hours at 37° C. in a humidified atmosphere containing 5% CO2. Both inhibitor and substrate were prepared in DMEM with 1% BSA media.
4. Lipid Extraction and Counting • Added 250 μl of methanol to stop the reaction and mixed. Added […] of dichloromethane, covered block and vortexed. Added […] of dichloromethane again, added […] of saturated KCl and vortexed. Centrifuged at 3000 rpm for 30 min. Triplicate 100 μl aliquots of aqueous fraction were mixed with 200 μl of scintillation fluid and the radioactivity was measured using a scintillation counter. All values were normalized for background. (iii) Results: • 1. […] (iv) Reference: 1. PCT Patent Application Serial No. PCT/CA03/00620

[2] = tested on: SCC-25 cells; experiment: [3H]-Thymidine proliferation assay with SCC-25 cells; conditions: head and neck cancer cells, 3 days, 3H-thymidine incorporation
Method: 1. Preparation of Cell Suspension • When SCC-25 cells were 70-80% confluent, aspirated media. Washed the cells with 1×PBS. Trypsinized with trypsin-EDTA from the plate, collected cells from the tissue culture flask, centrifuged (500×g, 5 min) and resuspended in media.
2. Cell Plating. • Counted the cells and adjusted the cell density to 10,000/ml. Added 200 μl per well in a 96 well plate. Incubated plate for 24 h at 37° C. in a humidified atmosphere plus 5% CO2. Aspirated used media and replaced with 175 μl per well with media.
(§1) 3. Substrate Addition. • Added 25 μl of compound (final concentration 10^−7 M, 5×10^−8 M, 10^−8 M, 5×10^−9 M, 10^−10 M or 0 M) into each designated well. Incubated plates for 3 days at 37° C. in a humidified atmosphere plus 5% CO2.
(§2) 4. ^3H-Thymidine Incorporation. • Added ^3H-thymidine at 0.02 μCi per well and incubated at 37° C. in a humidified atmosphere plus 5% CO2 for 6 h.
(§3) 5. Plate Harvesting. • Aspirated all media and washed cells with 1×PBS. Trypsinized cells for 30 min at 37° C. in a humidified atmosphere plus 5% CO2. Harvested cells onto a 96 well filter plate (Millipore) using a Tomtec Cell Harvestor, according to manufacturers instructions.
6. Scintillation Counting. • Added 25 μl of scintillation fluid per well. Counted the plate using a scintillation counter. Results: Compound (20R)-1(e) inhibited SCC-25 cell proliferation.

[3] = tested on: LNCaP cells; experiment: [3H]-Thymidine proliferation assay with LNCaP cells; conditions: prostate cancer cells, 3 days, 3H-thymidine incorporation
Method: 1. Preparation of Cell Suspension. • When LNCaP cells were 70-80% confluent, aspirated media. Washed the cells with 1×PBS. Trypsinized with trypsin-EDTA from the plate, collected cells from the tissue culture flask, centrifuged (500×g, 5 min) and resuspended in media.
2. Cell Plating. • Counted the cells and adjusted the cell density to 2,000/ml. Added 200 μl per well in a 96 well plate. Incubated plate for 24 h at 37° C. in a humidified atmosphere plus 5% CO2. Aspirated used media and replace with 175 μl per well with media.
as §1, §2
5. Plate Harvesting. • Aspirated all media. Trypsinized cells for 30 min at 37° C. in a humidified atmosphere plus 5% CO2. Harvested cells onto a 96 well filter plate (Millipore) using a Tomtec Cell Harvestor, according to manufacturers instructions.
6. Scintillation Counting. • Added 25 μl of scintillation fluid per well. Counted the plate using a scintillation counter. Results: Compound (20R)-I(e) inhibited LNCaP cell proliferation.

[4] = tested on: BxPC-3 cells; experiment: [3H]-Thymidine proliferation assay with BxPC-3 cells; conditions: pancreatic cancer cells, 3 days, 3H-thymidine incorporation
Method: 1. Preparation of Cell Suspension • When BxPC-3 cells were 70-80% confluent, aspirated media. Washed the cells with 1×PBS. Trypsinized with trypsin-EDTA from the plate, collected cells from the tissue culture flask, centrifuged (500×g, 5 min) and resuspended in media.
2. Cell Plating. • Counted the cells and adjusted the cell density to 2,000/ml. Added 200 μl per well in a 96 well plate. Incubated plate for 24 h at 37° C. in a humidified atmosphere plus 5% CO2. Aspirated used media and replaced with 175 μl per well with media.
3. Substrate Addition. • Added 25 μl of compound (final concentration 10^−7 M, 5×10^−8 M, 10^−8M, 5×10^−9 M, 10^−10 M or 0 M) into each designated well. Incubated plates for 3 days at 37° C. in a humidified atmosphere plus 5% CO2.
as §2, §3
6. Scintillation Counting. • Added 25 μl of scintillation fluid per well. Counted the plate using a scintillation counter. Results: Compound (20R)-I(e) inhibited BxPC-3 cell proliferation.

Compound: C=C1/C(=C\C=C2/CCC[C@]3(C)C([C@H](C)C/C=C/C(=NOC)C(C)(C)C)=CC[C@@H]23)C[C@@H](O)C[C@@H]1O [(20R)-I(e)]
- IC50 [1]: 20.7 nM
- Inhibition of SCC-25 cell proliferation [2]: inhibited
- Inhibition of LNCaP cell proliferation [3]: inhibited
- Inhibition of BxPC-3 cell proliferation [4]: inhibited
